Measurements taken from patent publication US6737383B1, “Herbicidal oxadiazolidines” (priority 1999, dated 2004).

How the values were obtained:
bamyardgrass = experiment: Test B flood test barnyardgrass; format: in vivo, Echinochloa crus-galli; settings: for Plant response rating, Barnyardgrass (0 to 10 scale, 0 is no effect, 10 is complete control): Rate 62 g/ha; for Plant response rating, Barnyardgrass (0 to 10 scale, 0 is no effect, 10 is complete control) / Barnyardgrass plant response rating (0 to 10 scale, 0 is no effect, 10 is complete control): visual evaluation after twelve to sixteen days; for Barnyardgrass plant response rating (0 to 10 scale, 0 is no effect, 10 is complete control): Rate 125 g/ha, under heading Pre-emergence
Method in brief: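 Read-out is a visual response score from 0 (no effect) to 10 (complete control), assigned by comparison with untreated controls. Treatment was applied at the 2-leaf stage, and plants stayed in the greenhouse for twelve to sixteen days before scoring.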

rape = experiment: Test B pre/postemergence rape; format: in vivo, Brassica napus
Method in brief: (§1)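 Response is a visual 0-to-10 score relative to untreated plants, where 0 means no effect and 10 means complete control, taken twelve to sixteen days after application. Treatments went onto soil at planting and onto foliage of 1- to 4-leaf plants, using a surfactant-containing non-phytotoxic solvent.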

wheat = experiment: Test B pre/postemergence wheat; format: in vivo, Triticum aestivum
Method in brief: as §1

velvetleaf = experiment: Test B pre/postemergence velvetleaf; format: in vivo, Abutilon theophrasti
Method in brief: as §1

[1] = flood test species, Pre-emergence
[2] = Rate 250 g/ha, Pre-emergence (flood test species), scale 0 to 10, 0 is no effect, 10 is complete control
[3] = Postemergence, Rate 250 g/ha, scale 0 to 10
[4] = Preemergence, Rate 62 g/ha, scale of 0 to 10 where 0 is no effect and 10 is complete control
[5] = Preemergence, Rate 125 g/ha, scale of 0 to 10 where 0 is no effect and 10 is complete control
[6] = Preemergence, Rate 250 g/ha, scale 0 to 10, 0 is no effect, 10 is complete control
[7] = Preemergence, Rate 500 g/ha, scale 0 to 10, 0 is no effect, 10 is complete control
[8] = Rate 62 g/ha, Postemergence, scale 0 to 10 (0 no effect, 10 complete control)
[9] = Rate 125 g/ha, Postemergence, scale 0 to 10, 0 is no effect, 10 is complete control
[10] = Rate 500 g/ha, Pre-emergence section of Table B, 0 to 10 scale (0 no effect, 10 complete control)
[11] = Postemergence, Rate 62 g/ha, scale of 0 to 10, 0 is no effect, 10 is complete control
[12] = Postemergence, Rate 500 g/ha, scale 0 to 10, 0 is no effect, 10 is complete control
[13] = Preemergence, Rate 62 g/ha, scale 0 to 10 (0 no effect, 10 complete control)
[14] = Preemergence, Rate 125 g/ha, scale 0 to 10, 0 is no effect, 10 is complete control
[15] = Preemergence, Rate 500 g/ha, scale of 0 to 10 where 0 is no effect and 10 is complete control
[16] = Rate 250 g/ha, Postemergence, scale of 0 to 10 where 0 is no effect and 10 is complete control
[17] = Postemergence, Rate 500 g/ha, scale of 0 to 10 where 0 is no effect and 10 is complete control
[18] = Postemergence, Rate 62 g/ha, scale 0 to 10, 0 is no effect, 10 is complete control
[19] = Postemergence, Rate 125 g/ha, scale of 0 to 10 where 0 is no effect and 10 is complete control
[20] = Postemergence, Rate 250 g/ha, scale of 0 to 10, 0 is no effect, 10 is complete control
[21] = Pre-emergence, Rate 1000 g/ha, scale 0 to 10 (0 no effect, 10 complete control)
[22] = Postemergence, Rate 1000 g/ha, scale 0 to 10 (0 no effect, 10 complete control)
[23] = Preemergence, Rate 250 g/ha, scale 0 to 10 (0 no effect, 10 complete control)
[24] = Rate 1000 g/ha, Preemergence, scale 0 to 10 (0 no effect, 10 complete control)

CC(C)N(C(=O)n1oc(=O)n(C(C)C(=O)N(C)C)c1=O)c1ccc(F)cc1 (stereo not shown) [Compound 478]
Plant response rating, Barnyardgrass (0 to 10 scale, 0 is no effect, 10 is complete control) (bamyardgrass; [1]): 0
Barnyardgrass plant response rating (0 to 10 scale, 0 is no effect, 10 is complete control) (bamyardgrass; flood test species): 0
Barnyardgrass plant response rating (bamyardgrass; [2]): 0
Barnyardgrass plant response rating (bamyardgrass; Rate 500 g/ha, Pre-emergence, flood test species, scale 0 to 10 (0 no effect, 10 complete control)): 0
Rape plant response rating (rape; [3]): 0
Plant response rating, Rape (rape; [4]): 0
Plant response rating, Rape (rape; [5]): 1
Rape plant response rating (rape; [6]): 4
Rape plant response rating (rape; [7]): 6
Rape plant response rating (rape; [8]): 0
Rape plant response rating (rape; [9]): 0
Wheat plant response rating (wheat; [3]): 2
Plant response rating, Wheat (wheat; [4]): 0
Plant response rating, Wheat (wheat; [5]): 0
Wheat plant response rating (wheat; [6]): 1
Wheat plant response rating (wheat; [7]): 8
Wheat plant response rating (wheat; [8]): 0
Wheat plant response rating (wheat; [9]): 0
Velvetleaf plant response rating (velvetleaf; [3]): 0
Plant response rating, Velvetleaf (velvetleaf; [4]): 0
Plant response rating, Velvetleaf (velvetleaf; [5]): 1
Velvetleaf plant response rating (velvetleaf; [6]): 3
Velvetleaf plant response rating (velvetleaf; [7]): 7
Velvetleaf plant response rating (velvetleaf; [8]): 0
Velvetleaf plant response rating (velvetleaf; [9]): 0

CCC=CCn1c(=O)on(C(=O)N(c2ccc(Cl)cc2)C(C)C)c1=O [Compound 552]
Plant response rating, Barnyardgrass (0 to 10 scale, 0 is no effect, 10 is complete control) (bamyardgrass; [1]): 0
Barnyardgrass plant response rating (0 to 10 scale, 0 is no effect, 10 is complete control) (bamyardgrass; flood test species): 0
Barnyardgrass plant response rating (bamyardgrass; [2]): 0
Barnyardgrass plant response rating (bamyardgrass; [10]): 0
Rape plant response rating (rape; [11]): 2
Rape plant response rating (rape; Postemergence, Rate 125 g/ha, scale 0 to 10, 0 is no effect, 10 is complete control): 6
Plant response rating, Rape (rape; [12]): 7
Rape plant response rating (rape; [13]): 0
Rape plant response rating (rape; [14]): 0
Rape plant response rating (0 to 10 scale) (rape; Preemergence, Rate 250 g/ha): 0
Rape plant response rating (rape; [15]): 0
Plant response rating, Rape (rape; [16]): 4
Wheat plant response rating (wheat; [11]): 0
Plant response rating, Wheat (wheat; [12]): 3
Wheat plant response rating (wheat; [13]): 0
Wheat plant response rating (wheat; [14]): 0
Wheat plant response rating (0 to 10 scale) (wheat; Preemergence, Rate 250 g/ha): 0
Wheat plant response rating (wheat; [15]): 4
Plant response rating, Wheat (wheat; [16]): 0
Velvetleaf plant response rating (velvetleaf; [11]): 0
Plant response rating, Velvetleaf (velvetleaf; [12]): 3
Velvetleaf plant response rating (velvetleaf; [13]): 0
Velvetleaf plant response rating (velvetleaf; [14]): 0
Velvetleaf plant response rating (0 to 10 scale) (velvetleaf; Preemergence, Rate 250 g/ha): 0
Velvetleaf plant response rating (velvetleaf; [15]): 0
Plant response rating, Velvetleaf (velvetleaf; [16]): 2

CC(C)N(C(=O)n1oc(=O)n(CCC2OCCO2)c1=O)c1ccccc1 [Compound 560]
Plant response rating, Barnyardgrass (0 to 10 scale, 0 is no effect, 10 is complete control) (bamyardgrass; [1]): 0
Barnyardgrass plant response rating (0 to 10 scale, 0 is no effect, 10 is complete control) (bamyardgrass; flood test species): 0
Barnyardgrass plant response rating (bamyardgrass; [2]): 0
Barnyardgrass plant response rating (bamyardgrass; [10]): 0
Rape plant response rating (rape; [11]): 0
Plant response rating, Rape (rape; [17]): 7
Rape plant response rating (rape; [13]): 0
Rape plant response rating (rape; [14]): 3
Rape plant response rating (0 to 10 scale) (rape; Preemergence, Rate 250 g/ha): 7
Rape plant response rating (rape; [15]): 8
Plant response rating, Rape (rape; [16]): 4
Wheat plant response rating (wheat; [11]): 0
Plant response rating, Wheat (wheat; [17]): 6
Wheat plant response rating (wheat; [13]): 3
Wheat plant response rating (wheat; [14]): 5
Wheat plant response rating (0 to 10 scale) (wheat; Preemergence, Rate 250 g/ha): 6
Wheat plant response rating (wheat; [15]): 8
Plant response rating, Wheat (wheat; [16]): 3
Velvetleaf plant response rating (velvetleaf; [11]): 0
Plant response rating, Velvetleaf (velvetleaf; [17]): 0
Velvetleaf plant response rating (velvetleaf; [13]): 0
Velvetleaf plant response rating (velvetleaf; [14]): 2
Velvetleaf plant response rating (0 to 10 scale) (velvetleaf; Preemergence, Rate 250 g/ha): 2
Velvetleaf plant response rating (velvetleaf; [15]): 5
Plant response rating, Velvetleaf (velvetleaf; [16]): 0

CC(C)N(C(=O)n1oc(=O)n(CC2=NOCCC2)c1=O)c1ccc(F)cc1F [Compound 602]
Plant response rating, Barnyardgrass (0 to 10 scale, 0 is no effect, 10 is complete control) (bamyardgrass; [1]): 0
Barnyardgrass plant response rating (0 to 10 scale, 0 is no effect, 10 is complete control) (bamyardgrass; flood test species): 0
Barnyardgrass plant response rating (bamyardgrass; [2]): 0
Barnyardgrass plant response rating (bamyardgrass; [10]): 0
Plant response rating, Rape (rape; [18]): 0
Plant response rating, Rape (rape; [19]): 0
Rape plant response rating (rape; [20]): 0
Plant response rating, Rape (rape; [17]): 0
Rape plant response rating (rape; [13]): 0
Rape plant response rating (rape; [5]): 0
Plant response rating, Rape (rape; [15]): 3
Plant response rating, Wheat (wheat; [18]): 0
Plant response rating, Wheat (wheat; [19]): 0
Wheat plant response rating (wheat; [20]): 0
Plant response rating, Wheat (wheat; [17]): 0
Wheat plant response rating (wheat; [13]): 0
Wheat plant response rating (wheat; [5]): 0
Plant response rating, Wheat (wheat; [15]): 0
Plant response rating, Velvetleaf (velvetleaf; [18]): 0
Plant response rating, Velvetleaf (velvetleaf; [19]): 0
Velvetleaf plant response rating (velvetleaf; [20]): 0
Plant response rating, Velvetleaf (velvetleaf; [17]): 0
Velvetleaf plant response rating (velvetleaf; [13]): 0
Velvetleaf plant response rating (velvetleaf; [5]): 6
Plant response rating, Velvetleaf (velvetleaf; [15]): 6

COC(=O)C(C)n1c(=O)on(C(=O)N(c2ccc(F)cc2)C(C)C)c1=O (stereo not shown) [Compound 616]
Barnyardgrass plant response rating (bamyardgrass; [21]): 0
Barnyardgrass plant response rating (0 to 10 scale, 0 is no effect, 10 is complete control) (bamyardgrass; flood test species): 0
Barnyardgrass plant response rating (bamyardgrass; [2]): 0
Barnyardgrass plant response rating (bamyardgrass; [10]): 0
Plant response rating, Rape (rape; [19]): 0
Rape plant response rating (rape; [20]): 0
Plant response rating, Rape (rape; [17]): 0
Rape plant response rating (rape; [22]): 3
Rape plant response rating (rape; [5]): 0
Plant response rating, Rape (rape; [23]): 0
Plant response rating, Rape (rape; [15]): 3
Plant response rating, Rape (rape; [24]): 6
Plant response rating, Wheat (wheat; [19]): 0
Wheat plant response rating (wheat; [20]): 0
Plant response rating, Wheat (wheat; [17]): 0
Wheat plant response rating (wheat; [22]): 0
Wheat plant response rating (wheat; [5]): 0
Plant response rating, Wheat (wheat; [23]): 0
Plant response rating, Wheat (wheat; [15]): 0
Plant response rating, Wheat (wheat; [24]): 0
Plant response rating, Velvetleaf (velvetleaf; [19]): 0
Velvetleaf plant response rating (velvetleaf; [20]): 0
Plant response rating, Velvetleaf (velvetleaf; [17]): 1
Velvetleaf plant response rating (velvetleaf; [22]): 1
Velvetleaf plant response rating (velvetleaf; [5]): 0
Plant response rating, Velvetleaf (velvetleaf; [23]): 0
Plant response rating, Velvetleaf (velvetleaf; [15]): 4
Plant response rating, Velvetleaf (velvetleaf; [24]): 5

CCOP(=O)(OCC)C(C)n1c(=O)on(C(=O)N(c2ccc(F)cc2)C(C)C)c1=O (stereo not shown) [Compound 617]
Barnyardgrass plant response rating (bamyardgrass; [21]): 0
Barnyardgrass plant response rating (0 to 10 scale, 0 is no effect, 10 is complete control) (bamyardgrass; flood test species): 0
Barnyardgrass plant response rating (bamyardgrass; [2]): 0
Barnyardgrass plant response rating (bamyardgrass; [10]): 0
Plant response rating, Rape (rape; [19]): 0
Rape plant response rating (rape; [20]): 0
Plant response rating, Rape (rape; [17]): 0
Rape plant response rating (rape; [22]): 0
Rape plant response rating (rape; [5]): 0
Plant response rating, Rape (rape; [23]): 0
Plant response rating, Rape (rape; [15]): 0
Plant response rating, Rape (rape; [24]): 0
Plant response rating, Wheat (wheat; [19]): 0
Wheat plant response rating (wheat; [20]): 0
Wheat plant response rating (wheat; [22]): 0
Wheat plant response rating (wheat; [5]): 0
Plant response rating, Wheat (wheat; [23]): 0
Plant response rating, Wheat (wheat; [15]): 0
Plant response rating, Wheat (wheat; [24]): 2
Plant response rating, Velvetleaf (velvetleaf; [19]): 0
Velvetleaf plant response rating (velvetleaf; [20]): 0
Velvetleaf plant response rating (velvetleaf; [22]): 2
Velvetleaf plant response rating (velvetleaf; [5]): 0
Plant response rating, Velvetleaf (velvetleaf; [23]): 0
Plant response rating, Velvetleaf (velvetleaf; [15]): 0
Plant response rating, Velvetleaf (velvetleaf; [24]): 0

COCCn1c(=O)on(C(=O)N(c2ccccc2)C(C)C)c1=O [Compound 631]
Plant response rating, Barnyardgrass (0 to 10 scale, 0 is no effect, 10 is complete control) (bamyardgrass; [1]): 0
Barnyardgrass plant response rating (0 to 10 scale, 0 is no effect, 10 is complete control) (bamyardgrass; flood test species): 1
Barnyardgrass plant response rating (bamyardgrass; [2]): 4
Barnyardgrass plant response rating (bamyardgrass; [10]): 4
Plant response rating, Rape (rape; [18]): 0
Plant response rating, Rape (rape; [19]): 0
Rape plant response rating (rape; [20]): 2
Plant response rating, Rape (rape; [17]): 2
Rape plant response rating (rape; [13]): 0
Rape plant response rating (rape; [5]): 0
Plant response rating, Rape (rape; [23]): 6
Plant response rating, Rape (rape; [15]): 8
Plant response rating, Wheat (wheat; [18]): 0
Plant response rating, Wheat (wheat; [19]): 2
Wheat plant response rating (wheat; [20]): 6
Wheat plant response rating (wheat; [13]): 0
Wheat plant response rating (wheat; [5]): 3
Plant response rating, Wheat (wheat; [23]): 8
Plant response rating, Wheat (wheat; [15]): 9
Plant response rating, Velvetleaf (velvetleaf; [18]): 4
Plant response rating, Velvetleaf (velvetleaf; [19]): 4
Velvetleaf plant response rating (velvetleaf; [20]): 7
Velvetleaf plant response rating (velvetleaf; [13]): 6
Velvetleaf plant response rating (velvetleaf; [5]): 7
Plant response rating, Velvetleaf (velvetleaf; [23]): 7
Plant response rating, Velvetleaf (velvetleaf; [15]): 9
